Experimental data reported in paper PMC3676766, “New Radioligands for Describing the Molecular Pharmacology of MT1 and MT2 Melatonin Receptors” (International Journal of Molecular Sciences, 2013).
Values joined by “and” are separate entries in the source; they are usually repeats but may differ in a detail not shown here. Equal values may be shown once. Read-outs that look alike come from different tables or passages of the source. Each block holds one molecule with its values, some of them ahead of it.

How the values were obtained:
[1] = molecular target: T1, hMT1 (Homo sapiens, UniProt P48039); assay: Saturation binding of iodinated radioligands, CHO-K1-hMT1 membranes; conditions: Scatchard
T1 construct: expressed in transfected cells; membranes or whole cells
T1 sequence (P48039 whole entry): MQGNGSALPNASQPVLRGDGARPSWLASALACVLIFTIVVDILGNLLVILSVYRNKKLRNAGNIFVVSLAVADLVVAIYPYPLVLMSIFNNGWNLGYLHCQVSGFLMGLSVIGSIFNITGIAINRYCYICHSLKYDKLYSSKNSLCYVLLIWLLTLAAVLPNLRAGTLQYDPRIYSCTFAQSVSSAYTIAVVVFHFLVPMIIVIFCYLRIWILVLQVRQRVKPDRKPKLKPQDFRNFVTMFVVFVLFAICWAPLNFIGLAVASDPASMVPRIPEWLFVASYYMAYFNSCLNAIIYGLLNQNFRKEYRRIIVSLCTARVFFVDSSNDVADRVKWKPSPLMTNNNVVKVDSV
Description: (§1) CHO-K1 cell lines stably expressing the human MT1 or MT2 receptors were grown to confluence, harvested in PBS buffer (Gibco, Invitrogen, Saint-Aubin, France) containing 5 mM EDTA, and centrifuged at 1,000 g for 20 min (4 °C). The resulting pellet was suspended in 5 mM Tris/HCl (pH 7.4) containing 2 mM EDTA and homogenized using Kinematicapolytron. The homogenate was then centrifuged (20,000 g, 30 min, 4 °C) and the resulting pellet suspended in 75 mM Tris/HCl (pH 7.4) containing 2 mM EDTA and 12.5 mM MgCl2. Protein content was determined according to Bradford using the Bio-Rad kit (Bio-Rad SA, Ivry-sur-Seine, France). Aliquots of membrane preparations were stored in re-suspension buffer (75 mM Tris/HCl pH 7.4, 2 mM EDTA, 12.5 mM MgCl2) at −80 °C until use.
The assays were performed in 96-well plates in 250 μL binding buffer (50 mM Tris/HCl pH 7.4, 5 mM MgCl2, 1 mM EDTA, plus BSA 0.1% for [^125I]-DIV880). The membranes, hMT1 and hMT2, were used at a final concentration of 30 μg of proteins/mL for all radioactive compounds. […]
(§2) The data were analyzed using the program PRISM (GraphPad Software Inc., San Diego, CA, USA). For the saturation assay, the binding site density (Bmax) and dissociation constant for the radioligand (Kd) were calculated according to the Scatchard method.

[2] = molecular target: T2, hMT2 (Homo sapiens, UniProt P49286); assay: Saturation binding of iodinated radioligands, CHO-K1-hMT2 membranes; conditions: Scatchard; for Bmax: saturation
T2 construct: expressed in transfected cells; membranes or whole cells
T2 sequence (P49286 1-362): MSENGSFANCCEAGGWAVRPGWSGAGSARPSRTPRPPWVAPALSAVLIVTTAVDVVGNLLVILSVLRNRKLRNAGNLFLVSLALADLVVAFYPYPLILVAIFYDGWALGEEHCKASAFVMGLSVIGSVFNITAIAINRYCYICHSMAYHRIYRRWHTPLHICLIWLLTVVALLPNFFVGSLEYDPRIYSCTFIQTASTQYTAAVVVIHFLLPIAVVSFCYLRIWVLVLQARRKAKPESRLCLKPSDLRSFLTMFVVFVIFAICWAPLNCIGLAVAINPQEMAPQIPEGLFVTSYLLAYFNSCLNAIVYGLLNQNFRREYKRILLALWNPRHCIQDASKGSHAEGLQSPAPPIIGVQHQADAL
Description: as §1
The assays were performed in 96-well plates in 250 μL binding buffer (50 mM Tris/HCl pH 7.4, 5 mM MgCl2, 1 mM EDTA, plus BSA 0.1% for [^125I]-DIV880). The membranes, hMT1 and hMT2, were used at a final concentration of 30 μg of proteins/mL for all radioactive compounds. For all protocols, the reaction was stopped by rapid filtration through GF/B unifilters (PEI 0.1% treated for [^125I]-DIV880), followed by three successive washes with ice-cold buffer (50 mM Tris/HCl, pH 7.4).
as §2

[3] = molecular target: T1, hMT1; assay: [35S]-GTPγS binding assay, hMT1; assay type: biochemical; conditions: for [35S]-GTPγS Emax (%) / Emax: percentage of melatonin (1 μM = 100%); for EC50: mean ± SEM, read-out: [35S]-GTPγS pEC50 (converted)
Description: (§3) CHO-K1 cell lines stably expressing the human MT1 or MT2 receptors were grown to confluence, harvested in PBS buffer (Gibco, Invitrogen, Saint-Aubin, France) containing 5 mM EDTA, and centrifuged at 1,000 g for 20 min (4 °C). The resulting pellet was suspended in 5 mM Tris/HCl (pH 7.4) containing 2 mM EDTA and homogenized using Kinematicapolytron. […] Protein content was determined according to Bradford using the Bio-Rad kit (Bio-Rad SA, Ivry-sur-Seine, France).
(§4) For the [^35S]-GTPγS binding assay, the membranes and compounds were diluted in the binding buffer (20 mM Hepes pH 7.4, 100 mM NaCl, 3 mM MgCl2, 3 μM GDP) in the presence of 20 μg/mL saponin in order to enhance the agonist-induced stimulation. Incubation was started by adding 0.1 nM [^35S]-GTPγS to the membranes and ligands in a final volume of 250 μL and allowed to continue for 60 min at room temperature. Non-specific binding was assessed using non-radiolabeled GTPγS (10 μM). Reactions were stopped by rapid filtration through GF/B unifilters pre-soaked with distilled water, followed by three successive washes with ice-cold buffer.

[4] = molecular target: T2, hMT2; assay: HTRF (TR-FRET) cAMP assay, CHO-K1 cells expressing hMT2; assay type: cell-based; conditions: 5 μM forskolin; for TR-FRET-cAMP Emax (%) / EC50: hMT2; for EC50: read-out: TR-FRET-cAMP pEC50 (converted)
Description: (§5) Cellular cAMP production was measured using cAMP dynamic HTRF kits (Cisbio Bioassays, Bedford, MA, USA) according to the manufacturer’s instructions. CHO-K1 cells stably expressing the hMT1 or hMT2 receptor were grown to confluence, harvested in PBS buffer containing 5 mM EDTA, and centrifuged at 100× g for 10 min (4 °C). […] Next, 15 μL of cAMP-d2 conjugate and 15 μL of anti-cAMP-EuK conjugate in lysis buffer were incubated for 30 min at room temperature. […] Non-specific binding was assessed using 100 μM non-labeled cAMP. The data were analyzed using the program PRISM to yield the EC50 and Emax.

[5] = molecular target: T2, hMT2; assay: [35S]-GTPγS binding assay, hMT2; assay type: biochemical; conditions: for Emax / [35S]-GTPγS Emax (%): percentage of melatonin (1 μM = 100%); for EC50: mean ± SEM, read-out: [35S]-GTPγS pEC50 (converted)
Description: as §3, §4

[6] = molecular target: T1, hMT1; assay: HTRF (TR-FRET) cAMP assay, CHO-K1 cells expressing hMT1; assay type: cell-based; conditions: 5 μM forskolin; for EC50: read-out: TR-FRET-cAMP pEC50 (converted)
Description: as §5

[7] = molecular target: T1, hMT1; assay: [125I]-2IMLT competition binding, CHO-K1 membranes, hMT1; conditions: 20 pM [125I]-2IMLT, 2 h 37 °C, mean ± SEM, read-out: Affinity pKi (converted)
Description: as §1
(§6) The assays were described previously. […] The results were expressed as the inhibition constant Ki, taking into account the concentration of radioligand used in each experiment. Non-specific binding was defined using 10 μM melatonin. The reaction was stopped by rapid filtration through GF/B unifilters, followed by three successive washes with ice-cold buffer. The data were analyzed using the program PRISM (GraphPad Software Inc., San Diego, CA, USA).

[8] = molecular target: T2, hMT2; assay: [125I]-2IMLT competition binding, CHO-K1 membranes, hMT2; conditions: for Difference in affinity MT2 versus MT1: Ki/pKi better for MT2 than for MT1; for Ki: hMT2
Description: as §1, §6

[9] = tested on: standard set of receptors and a small number of enzymatic targets; assay: Standard selectivity procedure (Cerep panel); assay type: binding; conditions: at 10 μM, cold compounds, transporters, channels, caspase-3, EGFR kinase, PKCα
Description: […]

[10] = hMT1, read-out: [35S]-GTPγS Emax (%)
[11] = CHO-K1, read-out: TR-FRET-cAMP Emax (%), hMT2
[12] = CHO-K1, read-out: TR-FRET-cAMP Emax (%), hMT1
[13] = 20 pM [125I]-2IMLT, 2 h 37 °C, mean ± SEM, read-out: Affinity pKi (converted)
[14] = CHO-K1, hMT2, read-out: TR-FRET-cAMP Emax (%)

SMILES: COc1ccc2[nH]c([125I])c(CCNC(C)=O)c2c1 [[^125I]-2IMLT, 2-[^125I]-iodomelatonin]
Bmax [1]: 688 fmol/mg of protein and 688 ± 153 fmol/mg of protein | Bmax [2]: 1,998 ± 318 fmol/mg of protein

SMILES: COc1ccc2[nH]cc(CCNC(=O)CI)c2c1 [SD6, N-[2-(5-methoxy-1H-indol-3-yl)ethyl]iodoacetamide]
Bmax [1]: 276 fmol/mg of protein | [35S]-GTPγS Emax (%) ([3]; hMT1): 115 ± 10% | Emax [3, 10]: > 100% | Emax [4, 11]: ~100% | TR-FRET-cAMP Emax (%) [4]: 103 ± 1% | Emax [5]: > 100% | [35S]-GTPγS Emax (%) [5]: 114 ± 16% | Emax [6, 12]: ~100% | TR-FRET-cAMP Emax (%) ([6]; hMT1): 103 ± 10%

EC50 ([3]; hMT1): > 10000 nM | Ki [7]: 562 nM | EC50 [5]: 12.3 nM | Emax [5]: 58 ± 2% | Difference in affinity MT2 versus MT1 [8]: at least 2 logs | Ki [8, 13]: 7.24 nM
SMILES: COc1cc(Br)c(Cc2cc(OC)c(OC)cc2CC(=O)OC(C)(C)C)cc1OC [DIV879, Tert-butyl 2-(2-[(2-bromo-4,5-dimethoxyphenyl)methyl]-4,5-dimethoxyphenyl) Acetate]

SMILES: COc1ccc2[nH]c(-c3cccc4ccccc34)c(CCNC(=O)C[125I])c2n1 [[^125I]-S70254]
pKd ([2]; saturation 0.01–2 nM radioligand): 9.61 ± 0.14 | Bmax [2]: 1,778 ± 87 fmol/mg of protein

EC50 ([3]; hMT1): 1260 nM | Emax [3, 10]: 10 ± 1% | Emax [4, 14]: 97 ± 1% | EC50 [4]: 16.2 nM | Ki [7]: 832 nM | EC50 [5]: 10.7 nM | Emax [5]: 67 ± 8% | effect on selectivity panel targets [9]: less than 20% | EC50 ([6]; hMT1): > 10000 nM | Difference in affinity MT2 versus MT1 [8]: 2 logs | Ki [8, 13]: 9.55 nM | Ki ([8]; approximate range in text, read-out: affinity for MT2 (range given)): ~10 nM
SMILES: COc1cc(I)c(Cc2cc(OC)c(OC)cc2CC(=O)OC(C)(C)C)cc1OC [DIV880]

[35S]-GTPγS Emax (%) ([3]; hMT1): 108 ± 3% | Emax ([3]; read-out: [35S]-GTPγS Emax (%), hMT1): > 100% | Emax [4, 11]: ~100% | [35S]-GTPγS Emax (%) [5]: 121 ± 13% | Emax [6, 12]: ~100%
SMILES: COc1ccc2[nH]c(I)c(CCNC(C)=O)c2c1 [2IMLT, 2-iodomelatonin, reference compound]

EC50 ([3]; hMT1): 79.4 nM | Emax [3, 10]: 15 ± 2% | Emax [4, 14]: 73% | TR-FRET-cAMP Emax (%) [4]: 76.5 ± 1% | EC50 [4]: 33.9 nM | Ki [7]: 661 nM | EC50 [5]: 2.04 nM | Emax [5]: 43 ± 1% | effect on selectivity panel targets [9]: less than 20% | Emax ([6]; CHO-K1, hMT1, read-out: TR-FRET-cAMP Emax (%)): 78 ± 12% | EC50 ([6]; hMT1): 1450 nM | Ki [8, 13]: 1.86 nM
SMILES: COc1ccc2[nH]c(-c3cccc4ccccc34)c(CCNC(=O)CI)c2n1 [S70254, 2-iodo-N-2-[5-methoxy-2-(naphthalen-1-yl)-1H-pyrrolo[3,2-b]pyridine-3-yl] Acetamide]
